Here are results for six molecules from patent publication US6068851A, “Formulation for use in the prevention of pathogen induced diseases including HIV and HSV” (Infectio Recherche, Inc., priority 1999, dated 2000).

Data set [1] in a line: Drug release from poloxamer gel (diffusion cell, dialysis membrane, radiolabelled drugs). Conditions: body temperature vs 4° C.; data not shown. In kind it is physicochemical. The source says:
The poloxamer gel could act as a sustained-drug release system which prolong the local microbicidal activity of the incorporated active agents. We have studied the release of antiviral agents (AZT, ddC, ddi, foscarnet, acyclovir) from our poloxamer gel formulations using radiolabelled drugs and a diffusion cell made of two compartments separated by a dialysis membrane. […] This is explained by the creation of large openings in the intermicellar network of the gel at high temperature which in turn increase the release of the incorporated active agents.

The conditions of data set [2]: background statement; cited from earlier work.
For data set [3], the system named is vaginal and cervical mucosae of rabbits. In words: In vivo tolerance/toxicity, vaginal and cervical mucosae, daily intravaginal application. More on the design: species or system New Zealand rabbits. To be noted: once daily intravaginal for two weeks; nonoxynol-9 dose 125 mg. How it is done:
(§1) Studies have been performed to evaluate the tolerance and toxicity of the poloxamer 407 gel (19.5% w/w) when applied locally once daily for two weeks to the vaginal and cervical mucosae of New Zealand rabbits. The gel was applied in its fluid state to allow a good penetration into the irregularly shaped surfaces of the mucosae. Biopsies of the vaginal and cervical mucosae were performed on days 0, 4, 7 and 14 for histological examinations. […] Such toxicity induced by nonoxynol-9 might favour the entry of pathogens.

For data set [4], the system named is cervical mucosa of rabbits. In words: Histopathology of cervix after daily intravaginal application. In kind it is in vivo, New Zealand rabbits. Conditions: once daily intravaginal for two weeks. How it is done: as §1
In another data set the test system is human cervical cells. In words: Viability of human cervical cells with nonoxynol-9, free or in poloxamer gel. The format is cell-based. How it is done: FIG. 2 represents the viability of human cervical cells following incubation with different concentrations of nonoxynol-9 either as free drug or incorporated into the poloxamer gel (19.5% w/w).

On to `Cc1cn([C@H]2C[C@H](N=[N+]=[N-])[C@@H](CO)O2)c(=O)[nH]c1=O` [AZT], for which the “release of drugs from the poloxamer gel” value in data set [1] is “increased at body temperature when compared to 4 °C”.

With `Nc1nc2c(ncn2COCCO)c(=O)[nH]1` [acyclovir], the “release of drugs from the poloxamer gel” value in data set [1] is “increased at body temperature when compared to 4 °C”.

Turning to `Nc1ccn([C@H]2CC[C@@H](CO)O2)c(=O)n1` [ddC, 2'-3'-dideoxycytidine], the “release of drugs from the poloxamer gel” value in data set [1] was “increased at body temperature when compared to 4 °C”.

As to `O=c1[nH]cnc2c1ncn2[C@H]1CC[C@@H](CO)O1` [ddi, 2'-3'-dideoxyinosine], the “release of drugs from the poloxamer gel” value in data set [1] is “increased at body temperature when compared to 4 °C”.

For `O=C(O)P(=O)(O)O` [foscarnet], the “release of drugs from the poloxamer gel” value in data set [1] is “increased at body temperature when compared to 4 °C”.

On to nonoxynol-9, for which the “local inflammation and ulcerations” value in data set [2] was “induce local inflammation and ulcerations”. Besides, in data set [3], the “toxicity to vaginal and cervical mucosae” value was “very toxic as evidenced by the presence of epithelial disruption, irritation, necrosis and bleeding”. In addition, the “histopathology of cervical mucosa” value in data set [4] was “large accumulation of eosinophiles in the sub-mucosa and induce a major loss of integrity of the epithelial cells”. Moreover, the “toxicity to human cervical cells (viability)” value with human cervical cells (different concentrations of nonoxynol-9, free or in gel) is reported as “highly toxic to the human cervical cells in a dose-dependent manner”. For the same molecule, the “concentration at which toxicity starts” value in the data set on human cervical cells (free nonoxynol-9, human cervical cells) worked out at 150 µg/mL.
